According to patent US20210145768A1, “MODULATING IMMUNE RESPONSE VIA TARGETING OF OLFACTORY RECEPTOR ACTIVITY” (La Jolla Institute for Allergy and Immunology, priority 2018, published 2021):
“Also recorded” adds a separate entry of the source.

Experiments:
Olfr2 [1] = target: T1, Olfr2 (Mus musculus, UniProt Q9QWU6); assay: Calcium signalling (Fluo-4, flow cytometry) in vascular macrophages; type: cell-based; set-up: Olfr2 expression was confirmed at the protein level on F4/80^+ vascular macrophages; from tissue; host or cells: explanted whole aortas, digested aortic cell suspensions (F4/80+ vascular macrophages) and blood monocytes of Apoe-/- C57BL/6J mice; living Apoe-/- mice for the in vivo study
T1 sequence (Q9QWU6 1-327): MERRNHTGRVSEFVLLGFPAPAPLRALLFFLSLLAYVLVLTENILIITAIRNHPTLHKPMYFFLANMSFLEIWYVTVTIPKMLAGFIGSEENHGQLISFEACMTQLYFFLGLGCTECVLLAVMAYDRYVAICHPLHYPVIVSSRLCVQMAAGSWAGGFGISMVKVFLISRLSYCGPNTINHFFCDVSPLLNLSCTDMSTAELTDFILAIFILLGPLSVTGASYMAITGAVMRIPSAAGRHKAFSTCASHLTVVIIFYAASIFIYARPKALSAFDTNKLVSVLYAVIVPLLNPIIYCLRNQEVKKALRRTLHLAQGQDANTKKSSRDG
Experimental: The role of Olfr2 ligation on inflammatory responses was investigated by measuring intracellular free calcium (Can in vascular macrophages. Briefly, mouse aortic cell suspensions were loaded with 2 μM Fluo-4 at 37° C. for 30 min, then washed and incubated with cell surface markers at RT for 20 min CD45^+, live, dump channel^− (TCRb^−, CD19^−), F4/80^+ macrophages were analyzed by flow cytometry. Olfr2 agonist Oct (10 μM), and antagonist Cit (100 μM) alone or combined (Oct+Cit) were added 60 seconds (s) after the acquisition started. DMSO (0.1%) was injected as a control (Ctrl).
Aortic cell suspensions obtained as previously described^18 were pre-incubated with extracellular markers for vascular macrophages including CD45-PerCP, TCRβ/CD4-APCCy7 (Dump Channel), F4/80-BV421 and LD Yellow fixable dye (Invitrogen) for 20 min in Fc block solution at RT in the dark. Aortic cell suspensions were than washed twice and loaded with 2 μM of Fluo4 dye (Thermo Fischer Scientific) for 30 min at 37° C.
Subsequently, cells were washed and resuspended in 37° C. warm HBSS buffer containing Ca^2+ and Mg^2+ and acquired with the LSRII flow cytometer. After 60 seconds, Oct (10 μM), Cit (100 μM) or vehicle (DMSO 0.1%) was added and acquisition continued for additional 140 seconds. Data was acquired with FACSDiva software (BD Biosciences) and analyzed with FlowJo software (Treestar Inc). Mean fluorescence intensity of Fluo4 was integrated over 25 seconds form the start of the acquisition (tot. 8 intervals).

Olfr2 [2] = target: T1, Olfr2; assay: Inflammatory gene expression (real time PCR) in explanted whole aortas treated with octanal, citral, LPS; type: cell-based; set-up: Olfr2 expression was confirmed at the protein level on F4/80^+ vascular macrophages; from tissue; host or cells: explanted whole aortas, digested aortic cell suspensions (F4/80+ vascular macrophages) and blood monocytes of Apoe-/- C57BL/6J mice; living Apoe-/- mice for the in vivo study; conditions: for mRNA expression of Ccl2, Ccl4, Tnf and Nos2 (iNOS): explanted whole aortas of Apoe−/− mice on WD 2 weeks, octanal 10 μM alone, normalized to Gapdh and untreated control; for octanal-induced increase in CCL2, CCL4, TNF and iNOS (Nos2) expression: citral 100 μM with octanal 10 μM, in presence and absence of LPS
Experimental: Gene expression analysis was performed by harvesting whole aortas from apoE^−/− mice kept on western diet (WD) for 2 weeks and treating for 12h with DMSO (Ctrl), citral (Cit, 100 μM), octanal (Oct, 10 μM in DMSO) or lipopolysaccharide (lps, 0.5 μg/mL in DMSO) alone or in combination. After the incubation, aortas were transferred in Trizol reagent (1 ml) and digested with gentleMACS™ Dissociator (Millteny). Total RNA was then purified with RNAse Micro kit (Qiagen) and reverse transcribed using the Omniscript reverse transcriptase kit (Qiagen). Real-time PCR reaction was performed following the RT^2 Sybr green gene expression assay protocol (Qiagen). RT2 SYBR Green qPCR mastermix mix and premade RT^2 qPCR Primer Assay for mouse GAPDH, CCL2, CCL4, TNF, and iNOS were used. Data were normalized to the expression levels of the housekeeping gene GAPDH.
To test physiologic effects of Olfr2 activation in situ, explanted whole aortas of mice (n=5 per group) were treated with octanal with or without LPS. Briefly, whole aortas were left untreated or incubated with the Olfr2 agonist octanal (Oct, 10 μM), LPS, (500 ng/mL), or with both for 12 h. Quantitative Real time PCR reaction was performed to detect Ccl2, Ccl4, Tnf, and Nos2 gene expression. Relative expression was normalized to Gapdh expression and the untreated control. […] TNF secretion by vascular macrophages (F4/80+) was confirmed by intracellular staining using flow cytometry (FIG. 7F).
Apoe^−/− mice were fed WD for 2 weeks before sacrifice for aorta explant culture. Whole aortas were incubated in culture medium with DMSO (0.1% as a vehicle), octanal (Oct, 10 μM), LPS (500 ng/mL) alone or octanal and LPS combined (LPS+Oct) for 12 h at 37° C. and 5% CO2. Subsequently, aortas were collected and further processed as below discussed for RNA extraction, and flow cytometry analysis. Culture supernatants were collected, aliquoted, and frozen at −80° C. until further analysis.
BMDMs and hMDMs were incubated in culture media for 12 h at 37° C. and 5% CO2 with Oct, (10 μM), LPS (500 ng/mL) alone or combined with Oct (LPS+Oct) and DMSO (0.1%) as a control and lysed with Qiazol (500 μL; Qiagen) Similarly, whole aortas incubated as previously described were transferred into Qiazol (500 μl; Qiagen) and digested with gentleMACS™ Dissociator (Miltenyi).
RNA extraction was performed using a Qiazol/RNAeasy micro kit hybrid protocol (Qiagen).
Total RNA was quantified using a nanodrop spectrophotometer (Peqlab) and 500 ng were reverse transcribed into cDNA using Omniscript reverse transcriptase (Qiagen). Real time PCR reactions were performed according to the RT^2 SYBR green gene expression assay protocol (Qiagen). RT2 SYBR Green qPCR master mix and premade RT^2 qPCR Primer Assays for mouse Olfr2, Rtp1, Rtp2, Ccl2, Ccl4, Tnf, Nos2 and Gapdh were used. Similarly, real time PCR analysis of hMDMs samples was performed following the RT^2 SYBR green gene expression assay protocol (Qiagen), applying RT^2 SYBR Green qPCR master mix and premade RT^2 qPCR Primer Assays for human OR6A2, TNF, IL-6, NOS2 and GAPDH. The results were calculated applying the 2^−ΔΔCT method^32 using Gapdh/GAPDH as housekeeping gene.

Compound: CCCCCCCC=O [octanal]
- calcium signal in other immune cells (TCRb+, CD19+) (Olfr2 [1]; octanal 10 μM, citral 100 μM alone or combined): No calcium signal
- intracellular free calcium (Fluo-4 MFI) in F4/80+ vascular macrophages (Olfr2 [1]; octanal 10 μM, at 100 and 125 s after injection): highly significant increase
- LPS-induced expression of inflammatory molecules (Ccl2, Ccl4, Tnf, Nos2) (Olfr2 [2]; explanted aortas, octanal 10 μM + LPS 500 ng/mL, 12 h): exacerbate the inflammatory response; also recorded: significantly enhances; also recorded: enhanced the LPS-induced expression
- mRNA expression of Ccl2, Ccl4, Tnf and Nos2 (iNOS) (Olfr2 [2]; 12 h): induces expression of inflammatory mediators; also recorded: induced mRNA expression
- mRNA expression of Ccl2, Ccl4, Tnf and Nos2 (iNOS) (Olfr2 [2]; 12 h, listed as Oct): induces pro-inflammatory gene expression
- LPS induction of CCL2 (MCP-1) and CCL4 (Olfr2 [2]; qRT-PCR, octanal + LPS): significantly enhanced
- iNOS expression induced by LPS (Olfr2 [2]; qRT-PCR, octanal + LPS): greatly enhanced
- TNF expression (Olfr2 [2]; qRT-PCR, octanal + LPS, Olfr2 ligation required to reveal LPS-induced increase): greatest effect
- CCL2 and CCL4 expression (Olfr2 [2]; qRT-PCR, octanal alone (without LPS)): measurable increase

Compound: CC(C)=CCCC(C)=CC=O [citral]
- octanal-induced calcium flux in vascular macrophages (Olfr2 [1]; citral 100 μM + octanal 10 μM): completely blocked
- octanal-induced increase in CCL2, CCL4, TNF and iNOS (Nos2) expression (Olfr2 [2]; explanted aortas, 12 h): completely blocked; also recorded: effective at curbing inflammatory mediator expression
- octanal-induced increase in CCL2, CCL4, TNF and iNOS (Nos2) expression (Olfr2 [2]; explanted aortas, 12 h, listed as Cit): reduced
